Laboratory results from patent US6737383B1, “Herbicidal oxadiazolidines” (priority 1999, dated 2004).

Columns and labels:
[1] = system: wild oat; experiment: Test B pre/postemergence wild oat; assay type: in vivo, Avena fatua
Procedure, shortened: (§1)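 Response is a visual 0-to-10 score relative to untreated plants, where 0 means no effect and 10 means complete control, taken twelve to sixteen days after application. Treatments went onto soil at planting and onto foliage of 1- to 4-leaf plants, using a surfactant-containing non-phytotoxic solvent.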

[2] = system: bedstraw; experiment: Test B pre/postemergence bedstraw; assay type: in vivo, Galium aparine
Procedure, shortened: as §1

[3] = system: velvetleaf; experiment: Test B pre/postemergence velvetleaf; assay type: in vivo, Abutilon theophrasti
Procedure, shortened: as §1

[4] = system: morningglory; experiment: Test B pre/postemergence morningglory; assay type: in vivo, Ipomoea hederacea
Procedure, shortened: as §1

[5] = Postemergence, Rate 62 g/ha, scale of 0 to 10, 0 is no effect, 10 is complete control
[6] = Postemergence, Rate 500 g/ha, scale of 0 to 10 where 0 is no effect and 10 is complete control
[7] = Preemergence, Rate 62 g/ha, scale 0 to 10 (0 no effect, 10 complete control)
[8] = Preemergence, Rate 125 g/ha, scale 0 to 10, 0 is no effect, 10 is complete control
[9] = Preemergence, Rate 500 g/ha, scale of 0 to 10 where 0 is no effect and 10 is complete control
[10] = Rate 250 g/ha, Postemergence, scale of 0 to 10 where 0 is no effect and 10 is complete control
[11] = Postemergence, Rate 125 g/ha, scale 0 to 10, 0 is no effect, 10 is complete control
[12] = Postemergence, Rate 125 g/ha, scale of 0 to 10 where 0 is no effect and 10 is complete control
[13] = Postemergence, Rate 250 g/ha, scale of 0 to 10, 0 is no effect, 10 is complete control
[14] = Preemergence, Rate 125 g/ha, scale of 0 to 10 where 0 is no effect and 10 is complete control
[15] = Postemergence, Rate 62 g/ha, scale 0 to 10, 0 is no effect, 10 is complete control
[16] = Preemergence, Rate 250 g/ha, scale 0 to 10 (0 no effect, 10 complete control)
[17] = Rate 1000 g/ha, Preemergence, scale 0 to 10 (0 no effect, 10 complete control)
[18] = Postemergence, Rate 1000 g/ha, scale 0 to 10 (0 no effect, 10 complete control)

SMILES	Plant response rating, Wild oats [1, 6]	Wild oats plant response rating [1, 7]	Bedstraw plant response rating [2, 7]	Bedstraw plant response rating (0 to 10 scale) ([2]; Preemergence, Rate 250 g/ha)	Bedstraw plant response rating [2, 9]	Plant response rating, Velvetleaf [3, 6]	Velvetleaf plant response rating [3, 7]	Plant response rating, Morningglory [4, 6]	Morningglory plant response rating [4, 7]	Plant response rating, Wild oats [1, 12]	Wild oats plant response rating [1, 13]	Wild oats plant response rating [1, 14]	Plant response rating, Wild oats [1, 9]	Plant response rating, Velvetleaf [3, 12]	Velvetleaf plant response rating [3, 13]	Velvetleaf plant response rating [3, 14]	Plant response rating, Velvetleaf [3, 9]	Plant response rating, Morningglory [4, 12]	Morningglory plant response rating [4, 13]	Morningglory plant response rating [4, 14]	also measured
CC(C)N(C(=O)n1oc(=O)n(CCC2OCCO2)c1=O)c1ccccc1 [Compound 560]	2	0	0	5	8	0	0	10	0	–	–	–	–	–	–	–	–	–	–	–	Wild oats plant response rating [1, 5]: 0; Wild oats plant response rating [1, 8]: 0; Wild oats plant response rating (0 to 10 scale) ([1]; Preemergence, Rate 250 g/ha): 5; Wild oats plant response rating [1, 9]: 7; Plant response rating, Wild oats [1, 10]: 2; Bedstraw plant response rating [2, 5]: 0; Bedstraw plant response rating [2, 8]: 0; Plant response rating, Bedstraw [2, 10]: 0; Velvetleaf plant response rating [3, 5]: 0; Velvetleaf plant response rating [3, 8]: 2; Velvetleaf plant response rating (0 to 10 scale) ([3]; Preemergence, Rate 250 g/ha): 2; Velvetleaf plant response rating [3, 9]: 5; Plant response rating, Velvetleaf [3, 10]: 0; Morningglory plant response rating [4, 5]: 4; Morningglory plant response rating [4, 11]: 7; Morningglory plant response rating [4, 8]: 0; Morningglory plant response rating (0 to 10 scale) ([4]; Preemergence, Rate 250 g/ha): 3; Morningglory plant response rating [4, 9]: 3; Plant response rating, Morningglory [4, 10]: 9
CC(C)N(C(=O)n1oc(=O)n(C(C)C(=O)c2ccccc2)c1=O)c1ccccc1 (stereo not drawn) [Compound 570]	0	0	0	0	0	0	0	10	0	–	–	–	–	–	–	–	–	–	–	–	Wild oats plant response rating [1, 8]: 0; Wild oats plant response rating (0 to 10 scale) ([1]; Preemergence, Rate 250 g/ha): 0; Wild oats plant response rating [1, 9]: 0; Plant response rating, Wild oats [1, 10]: 0; Bedstraw plant response rating [2, 5]: 0; Bedstraw plant response rating [2, 8]: 0; Velvetleaf plant response rating [3, 8]: 0; Velvetleaf plant response rating (0 to 10 scale) ([3]; Preemergence, Rate 250 g/ha): 0; Velvetleaf plant response rating [3, 9]: 0; Plant response rating, Velvetleaf [3, 10]: 0; Morningglory plant response rating [4, 5]: 4; Morningglory plant response rating [4, 11]: 10; Morningglory plant response rating [4, 8]: 0; Morningglory plant response rating (0 to 10 scale) ([4]; Preemergence, Rate 250 g/ha): 0; Morningglory plant response rating [4, 9]: 0; Plant response rating, Morningglory [4, 10]: 10
CC(C)N(C(=O)n1oc(=O)n(CC(=O)C(F)(F)F)c1=O)c1ccc(F)cc1F [Compound 598]	0	0	0	0	0	0	0	0	0	0	0	0	0	0	0	0	0	0	0	0	Bedstraw plant response rating [2, 5]: 0; Plant response rating, Bedstraw [2, 12]: 0; Bedstraw plant response rating [2, 14]: 0; Morningglory plant response rating [4, 5]: 0; Plant response rating, Morningglory [4, 9]: 0
CC(C)N(C(=O)n1oc(=O)n(CC2=NOCCC2)c1=O)c1ccc(F)cc1F [Compound 602]	3	0	0	0	0	0	0	3	0	0	0	3	8	0	0	6	6	1	2	0	Plant response rating, Wild oats [1, 15]: 0; Plant response rating, Bedstraw [2, 12]: 3; Bedstraw plant response rating [2, 13]: 3; Bedstraw plant response rating [2, 14]: 0; Plant response rating, Velvetleaf [3, 15]: 0; Plant response rating, Morningglory [4, 15]: 0; Plant response rating, Morningglory [4, 9]: 0
CCC(C)n1c(=O)on(C(=O)N(c2ccccc2)C(C)C)c1=O (stereo not drawn) [Compound 612]	9	5	–	–	10	6	6	10	0	6	6	9	10	3	3	7	8	8	8	0	Plant response rating, Wild oats [1, 15]: 0; Plant response rating, Bedstraw [2, 15]: 3; Bedstraw plant response rating [2, 13]: 6; Plant response rating, Bedstraw [2, 6]: 9; Plant response rating, Velvetleaf [3, 15]: 2; Plant response rating, Morningglory [4, 15]: 5; Plant response rating, Morningglory [4, 9]: 10
COC(=O)C(C)n1c(=O)on(C(=O)N(c2ccc(F)cc2)C(C)C)c1=O (stereo not drawn) [Compound 616]	0	–	–	–	0	1	–	10	–	0	0	0	2	0	0	0	4	0	4	0	Plant response rating, Wild oats [1, 16]: 0; Plant response rating, Wild oats [1, 17]: 10; Plant response rating, Bedstraw [2, 12]: 0; Bedstraw plant response rating [2, 13]: 0; Bedstraw plant response rating [2, 14]: 0; Plant response rating, Bedstraw [2, 16]: 0; Plant response rating, Bedstraw [2, 17]: 4; Velvetleaf plant response rating [3, 18]: 1; Plant response rating, Velvetleaf [3, 16]: 0; Plant response rating, Velvetleaf [3, 17]: 5; Morningglory plant response rating [4, 18]: 10; Plant response rating, Morningglory [4, 16]: 0; Plant response rating, Morningglory [4, 9]: 0; Plant response rating, Morningglory [4, 17]: 0
